Where two headings read alike, the source gives them in different places.
Tests used:
[1] = test system: HIV-1; assay: Study 5 overall: resistance of naive PBMCs to HIV-1 challenge (RT activity and P-24 assay); type: cell-based; details: monocytes and macrophages incubated with hyaluronidase treated heat inactivated or Aldrathiol-2 treated virus
Procedure: Control groups were not treated with the enzyme. The virus was then titrated on macrophage/monocyte cultures and incubated at 37° C. for 48 hours at which time the macrophages and monocytes were washed 3×, resuspended and placed in fresh wells. Naïve PBMC's were overlayed on the macrophage/monocyte cultures and incubated at 37° C. for 72 hours. The PBMC's were then separated, washed and placed in fresh wells with fresh medium and rested for 48 hours. After a 48 hour rest period, the PBMC's were challenged with HIV-1 with and without PHA, I1-2, or both. […] These various assays are presented below in Table 10 .

[2] = test system: ROJO (low passage HIV-1); assay: Study 4 sensitization, Turpin and standard macrophages: RT activity after Rojo challenge; type: cell-based; details: Rojo Sensitized
Procedure: Percent virus control (% VC) in the following tables is the mean RT activity (cpm) as a percentage of a virus control. Percent cell control (% CC) is the mean XTT absorbance as a percentage of a cell control.
The macrophage plates were then washed with HBSS multiple times. Fresh mixed pha blast PBMCs (5×10e4/well) were placed on the macrophage cells, allowed to incubate for 72 hours and then harvested and reset in a fresh 96 well plate. The PBMCs were then challenged overnight with the respective virus (IIIB or Rojo) at a standard MOI for that virus. The PBMCs were 5× in plate spin washed with DPBS, incubated 24 hours, at which time 5×10e4 fresh pha blast PBMCs/well were added. The culture was incubated an additional 6 days and then assayed for RT activity.
Where viability corrections were conducted, they were performed by dividing the RT CPM value by the toxicity absorbance in order to compensate for well to well variations noted in the cell titer toxicity noted.

[3] = test system: HIV-1; details: Assay #8
Procedure: (§1) Reverse transcriptase (RT) activity was measured in cell-free supernatants. Tritiated thymidine triphosphate (NEN) (TTP) was resuspended in distilled H2O at 5 Cl/mL. Poly rA and oligo dT were prepared as a stock solution which was kept at −20° C. The RT reaction buffer was prepared fresh on a daily basis and consists of 125 μL 1.0 M EGTA, 125 μL d H2O, 110 μL 10% SDS, 50 μL 1.0 M Tris (pH 7.4), 50 μL 1.0 M DTT, and 40μ1.0 M MgCl2. These three solutions were mixed together in a ratio of 2 parts TTP, 1 part poly rA:oligo dT, and 1 part reaction buffer. Ten microliters of this reaction mixture was placed in a round bottom microtiter plate and 15 μL of virus containing supernatant was added and mixed. The plate was incubated at 37° C. in a water bath with a solid support to prevent submersion of the plate and incubated for 60 minutes. Following reaction, the reaction volume was spotted onto pieces of DE81 paper, washed 5 times for 5 minutes each in a 5% sodium phosphate buffer, 2 times for 1 minute each in distilled water, 2 times for 1 minute each in 70% ethanol, and then dried. Opti-Fluor O was added to each sample and incorporated radioactivity was quantitated utilizing a Wallace 1450 Microbetaplus liquid scintillation counter.

[4] = test system: HIV-1; details: Assay #7
Procedure: as §1

Hyaluronidase
resistance of naïve PBMC's to HIV-1 challenge [1]: up to 100% | RT activity % VC ([2]; 0.390625 μg/mL, Standard): 50.4% | RT activity % VC ([2]; 0.390625 μg/mL, Turpin): 69.6% | RT activity % VC ([2]; 0.78125 μg/mL, Standard): 59.9% | RT activity % VC ([2]; 0.78125 μg/mL, Turpin): 48.6% | RT activity % VC ([2]; 1.5625 μg/mL, Turpin): 61.1% | RT activity % VC ([2]; 3.125 μg/mL, Standard): 55.8% | RT activity % VC ([2]; 3.125 μg/mL, Turpin): 45.6% | RT activity % VC ([2]; 6.25 μg/mL, Standard): 57.7% | RT activity % VC ([2]; 6.25 μg/mL, Turpin): 39.4% | RT activity % VC ([2]; 25 μg/mL, Standard): 21.0% | RT activity % VC ([2]; 25 μg/mL, Turpin): 15.5% | RT activity % VC ([2]; viability corrected, 0.097656 μg/mL, Standard): 66.0% | RT activity % VC ([2]; viability corrected, 0.097656 μg/mL, Turpin): 94.1% | RT activity % VC ([2]; viability corrected, 0.390625 μg/mL, Standard): 52.2% | RT activity % VC ([2]; viability corrected, 0.78125 μg/mL, Standard): 55.1% | RT activity % VC ([2]; viability corrected, 0.78125 μg/mL, Turpin): 56.9% | RT activity % VC ([2]; viability corrected, 1.5625 μg/mL, Standard): 57.0% | RT activity % VC ([2]; viability corrected, 1.5625 μg/mL, Turpin): 69.1% | RT activity % VC ([2]; viability corrected, 3.125 μg/mL, Standard): 53.4% | RT activity % VC ([2]; viability corrected, 3.125 μg/mL, Turpin): 55.5% | RT activity % VC ([2]; viability corrected, 6.25 μg/mL, Standard): 56.6% | RT activity % VC ([2]; viability corrected, 6.25 μg/mL, Turpin): 48.5% | RT activity % VC ([2]; viability corrected, 25 μg/mL, Turpin): 25.6% | % Control ([3]; 5 mg/mL): 171.3% | Mean RT ([3]; 5 mg/mL): 30167.3 cpm | % Control ([3]; 10 mg/mL): 63.8% | Mean RT ([3]; 10 mg/mL): 11241 cpm | % Control ([3]; 20 mg/mL): 51.2% | Mean RT ([3]; 20 mg/mL): 9014.3 cpm | % Control, Sum ([3]; Sum over 20, 10, 5 mg/mL): 286.3% | Mean RT, Sum ([3]; Sum over 20, 10, 5 mg/mL): 50422.6 cpm | % Control ([4]; 5 mg/mL): 111.3% | Mean RT ([4]; 5 mg/mL): 18777.7 cpm | % Control ([4]; 10 mg/mL): 122.2% | Mean RT ([4]; 10 mg/mL): 20614.7 cpm | % Control ([4]; 20 mg/mL): 162.7% | Mean RT ([4]; 20 mg/mL): 27462 cpm | % Control, Sum ([4]; Sum over 20, 10, 5 mg/mL): 396.2% | Mean RT, Sum ([4]; Sum over 20, 10, 5 mg/mL): 66854.4 cpm

From patent US7157083B2, “Compositions and methods for treating retroviral infections” (priority 1998, dated 2007)
